# Laboratory results: patent publication US20060106075A1, “Benzothiazole derivatives having beta-2-adrenoreceptor agonist activity” (priority 2002, published 2006)
# Read-outs that look alike come from different tables or passages of the source.
# Molecular target: β2-adrenoceptor (Homo sapiens, UniProt P07550)
# Assay: β2-adrenoceptor binding potency, classical filtration binding assay
# From the text: Accordingly the invention also provides a compound of formula I in free or salt form for use as a pharmaceutical.
# Chain of β2-adrenoceptor (P07550 whole entry, species assumed): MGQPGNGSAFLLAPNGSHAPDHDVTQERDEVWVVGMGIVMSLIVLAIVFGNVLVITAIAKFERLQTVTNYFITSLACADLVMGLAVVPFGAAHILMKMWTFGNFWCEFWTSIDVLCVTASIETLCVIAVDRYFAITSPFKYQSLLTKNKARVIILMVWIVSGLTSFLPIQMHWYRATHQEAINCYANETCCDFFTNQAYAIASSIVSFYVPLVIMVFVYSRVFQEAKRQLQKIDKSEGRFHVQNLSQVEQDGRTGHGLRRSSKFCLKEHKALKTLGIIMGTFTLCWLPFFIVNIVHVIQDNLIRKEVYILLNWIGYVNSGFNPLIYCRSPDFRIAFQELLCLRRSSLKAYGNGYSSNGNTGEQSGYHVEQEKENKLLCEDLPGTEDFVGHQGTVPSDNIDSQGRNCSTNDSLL
SMILES,Ki (read-out: Ki (β2)) [pM],Ki [pM]
"O=c1[nH]c2c(O)ccc(C(O)CNCCc3ccc(OCCCCc4ccccc4)cc3)c2s1 (centres unmarked) [Example 1, 4-hydroxy7-(1-hydroxy-2-{2-[4-(4-phenyl-butoxy)-phenyl]-ethylamino}-ethyl)-3H-benzothiazol-2-one]",300,–
COc1ccc(C[C@@H](C)NCC(O)c2ccc(O)c3[nH]c(=O)sc23)cc1 (some centres unmarked) [Example 3],–,1600
